Experimental data: US9085555B2, “Complement pathway modulators and uses thereof” (priority 2011, dated 2015)

What follows are compounds tested against Factor D (Homo sapiens (Human), UniProt P00746) (assay: biochemical). Conditions: read-out: IC50.
Format: biochemical

Chain of Factor D (P00746 26-253): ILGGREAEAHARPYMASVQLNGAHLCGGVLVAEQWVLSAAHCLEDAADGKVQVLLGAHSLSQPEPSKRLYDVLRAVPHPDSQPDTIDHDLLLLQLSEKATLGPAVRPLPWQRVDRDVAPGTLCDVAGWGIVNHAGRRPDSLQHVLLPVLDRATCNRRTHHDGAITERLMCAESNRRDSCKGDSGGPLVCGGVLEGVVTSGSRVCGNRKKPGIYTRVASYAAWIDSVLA

Compared with `CCO[C@H]1[C@@H](C(=O)NCc2cccc(Cl)c2F)N(C(=O)Cn2cc(C(C)=O)c3ccccc32)C[C@@H]1F` [Example 569, (2S,3S,4S)-1-[2-(3-Acetyl-indol-1-yl)-acetyl]-4-fluoro-3-ethoxy-pyrrolidine-2-carboxylic acid 3-chloro-2-fluoro-benzylamide], `CC(=O)c1cn(CC(=O)N2C[C@H](F)[C@@H](N)[C@H]2C(=O)NCc2cccc(Cl)c2F)c2ccccc12` [Example 575, (2S,3S,4S)-1-[2-(3-Acetyl-indol-1-yl)-acetyl]-3-amino-4-fluoro-pyrrolidine-2-carboxylic acid 3-chloro-2-fluoro-benzylamide] is 65-fold higher in IC50: 13 nM for the first, 843 nM for the second.

Going from `CO[C@H]1[C@@H](C(=O)N[C@H](C)c2cccc(Cl)c2F)N(C(=O)Cn2cc(C(C)=O)c3ccccc32)C[C@@H]1F` [Example 570, (2S,3S,4S)-1-[2-(3-Acetyl-indol-1-yl)-acetyl]-4-fluoro-3-methoxy-pyrrolidine-2-carboxylic acid [(R)-1-(3-chloro-2-fluoro-phenyl)-ethyl]-amide] to `CO[C@H]1[C@@H](C(=O)N[C@@H](C)c2cccc(Cl)c2F)N(C(=O)Cn2cc(C(C)=O)c3ccccc32)C[C@@H]1F` [Example 571, (2S,3S,4S)-1-[2-(3-Acetyl-indol-1-yl)-acetyl]-4-fluoro-3-methoxy-pyrrolidine-2-carboxylic acid [(S)-1-(3-chloro-2-fluoro-phenyl)-ethyl]-amide], the IC50 rises from 27 nM to 99 nM (3.7-fold). The first is the more potent here.

Compared with `CO[C@H]1[C@@H](C(=O)NC2(c3cccc(Cl)c3)CC2)N(C(=O)Cn2cc(C(C)=O)c3ccccc32)C[C@@H]1F` [Example 572, (2S,3S,4S)-1-[2-(3-Acetyl-indol-1-yl)-acetyl]-4-fluoro-3-methoxy-pyrrolidine-2-carboxylic acid [1-(3-chloro-phenyl)-cyclopropyl]-amide], `CO[C@H]1[C@@H](C(=O)NC2(c3ccc(Cl)cc3)CC2)N(C(=O)Cn2cc(C(C)=O)c3ccccc32)C[C@@H]1F` [Example 573, (2S,3S,4S)-1-[2-(3-Acetyl-indol-1-yl)-acetyl]-4-fluoro-3-methoxy-pyrrolidine-2-carboxylic acid [1-(4-chloro-phenyl)-cyclopropyl]-amide] is 3-fold higher in IC50: 284 nM for the first, 865 nM for the second.

First: NC(=O)c1cn(CC(=O)N2C[C@H](F)[C@@H](N)[C@H]2C(=O)NCc2cccc(Cl)c2F)c2ccccc12 [Example 574, 1-{2-[(2S,3S,4S)-3-Amino-2-(3-chloro-2-fluoro-benzylcarbamoyl)-4-fluoro-pyrrolidin-1-yl]-2-oxo-ethyl}-1H-indole-3-carboxylic acid amide]
Second: CC(=O)c1cn(CC(=O)N2C[C@@H](N)[C@H](F)[C@H]2C(=O)NCc2cccc(Cl)c2F)c2ccccc12 [Example 576, (2R,3S,4R)-1-[2-(3-Acetyl-indol-1-yl)-acetyl]-4-amino-3-fluoro-pyrrolidine-2-carboxylic acid 3-chloro-2-fluoro-benzylamide]
The IC50 of the first is 1.8-fold lower: 217 nM for the first, 400 nM for the second. The first is the more potent here.

First: NC(=O)c1cn(CC(=O)N2C[C@H](F)C[C@H]2C(=O)NCc2cccc(Cl)c2F)c2ccc(O)cc12 [Example 577, 1-{2-[(2S,4R)-2-(3-Chloro-2-fluoro-benzylcarbamoyl)-4-fluoro-pyrrolidin-1-yl]-2-oxo-ethyl}-5-hydroxy-1H-indole-3-carboxylic acid amide]
Second: CC(=O)c1cn(CC(=O)N2C[C@H](F)C[C@H]2C(=O)NCc2cccc(Cl)c2F)c2ccc(O)cc12 [Example 579, (2S,4R)-1-[2-(3-Acetyl-5-hydroxy-indol-1-yl)-acetyl]-4-fluoro-pyrrolidine-2-carboxylic acid 3-chloro-2-fluoro-benzylamide]
The IC50 of the first is 1.8-fold higher: 71 nM for the first, 39 nM for the second.

Compared with `CC(=O)c1cn(CC(=O)N2C[C@](C)(F)C[C@H]2C(=O)NCc2cccc(Cl)c2F)c2ccc(O)cc12` [Example 580, (2S,4R)-1-[2-(3-Acetyl-5-hydroxy-indol-1-yl)-acetyl]-4-fluoro-4-methyl-pyrrolidine-2-carboxylic acid 3-chloro-2-fluoro-benzylamide], `CC(=O)c1cn(CC(=O)N2C[C@](C)(F)C[C@H]2C(=O)NCc2cccc(Cl)c2F)c2cc(O)ccc12` [Example 582, (2S,4R)-1-[2-(3-Acetyl-6-hydroxy-indol-1-yl)-acetyl]-4-fluoro-4-methyl-pyrrolidine-2-carboxylic acid 3-chloro-2-fluoro-benzylamide] is 1.9-fold lower in IC50: 252 nM for the first, 134 nM for the second. The second is the more potent here.

First: CC(=O)c1cn(CC(=O)N2[C@@H]3C[C@@H]3C[C@H]2C(=O)NCc2cccc(Cl)c2F)c2ccc(O)cc12 [Example 581, (1R,3S,5R)-2-[2-(3-Acetyl-5-hydroxy-indol-1-yl)-acetyl]-2-aza-bicyclo[3.1.0]hexane-3-carboxylic acid 3-chloro-2-fluoro-benzylamide]
Second: CC(=O)c1cn(CC(=O)N2[C@@H]3C[C@@H]3C[C@H]2C(=O)NCc2cccc(Cl)c2F)c2cc(O)ccc12 [Example 584, (1R,3S,5R)-2-[2-(3-Acetyl-6-hydroxy-indol-1-yl)-acetyl]-2-aza-bicyclo[3.1.0]hexane-3-carboxylic acid 3-chloro-2-fluoro-benzylamide]
The IC50 of the first is 1.6-fold higher: 60 nM for the first, 38 nM for the second. The second is the more potent here.

First: NC(=O)c1cn(CC(=O)N2C[C@H](F)C[C@H]2C(=O)NCc2cccc(Cl)c2F)c2cc(OCc3nn[nH]n3)ccc12 [Example 585, 1-{2-[(2S,4R)-2-(3-Chloro-2-fluoro-benzylcarbamoyl)-4-fluoro-pyrrolidin-1-yl]-2-oxo-ethyl}-6-(1H-tetrazol-5-ylmethoxy)-1H-indole-3-carboxylic acid amide]
Second: CC(=O)c1cn(CC(=O)N2C[C@H](F)C[C@H]2C(=O)NCc2cccc(Cl)c2F)c2cc(OCc3nn[nH]n3)ccc12 [Example 586, (2S,4R)-1-{2-[3-Acetyl-6-(1H-tetrazol-5-ylmethoxy)-indol-1-yl]-acetyl}-4-fluoro-pyrrolidine-2-carboxylic acid 3-chloro-2-fluoro-benzylamide]
The IC50 of the first is 7.8-fold lower: 17 nM for the first, 132 nM for the second.

Compared with `CC(=O)c1cn(CC(=O)N2[C@@H]3C[C@@H]3C[C@H]2C(=O)NCc2cccc(Cl)c2F)c2cc(OCc3nn[nH]n3)ccc12` [Example 587, (1R,3S,5R)-2-{2-[3-Acetyl-6-(1H-tetrazol-5-ylmethoxy)-indol-1-yl]-acetyl}-2-aza-bicyclo[3.1.0]hexane-3-carboxylic acid 3-chloro-2-fluoro-benzylamide], `CC(=O)c1cn(CC(=O)N2[C@@H]3C[C@@H]3C[C@H]2C(=O)NCc2cccc(Cl)c2F)c2cc(C(=O)O)ccc12` [Example 598, 3-Acetyl-1-{2-[(1R,3S,5R)-3-(3-chloro-2-fluoro-benzylcarbamoyl)-2-aza-bicyclo[3.1.0]hex-2-yl]-2-oxo-ethyl}-1H-indole-6-carboxylic acid] is 5.6-fold lower in IC50: 79 nM for the first, 14 nM for the second.

Going from `COc1ccc2c(c1)c(C(C)=O)cn2CC(=O)N1C[C@H](F)C[C@H]1C(=O)NCc1cccc(Cl)c1F` [Example 588, (2S,4R)-1-[2-(3-Acetyl-5-methoxy-indol-1-yl)-acetyl]-4-fluoro-pyrrolidine-2-carboxylic acid 3-chloro-2-fluoro-benzylamide] to `CC(=O)c1cn(CC(=O)N2C[C@H](F)C[C@H]2C(=O)NCc2cccc(Cl)c2F)c2cc(C(=O)O)ccc12` [Example 597, 3-Acetyl-1-{2-[(2S,4R)-2-(3-chloro-2-fluoro-benzylcarbamoyl)-4-fluoro-pyrrolidin-1-yl]-2-oxo-ethyl}-1H-indole-6-carboxylic acid], the IC50 falls from 31 nM to 14 nM (2.2-fold).

Going from `CC(=O)c1cn(CC(=O)N2C[C@H](F)C[C@H]2C(=O)NCc2cccc(Cl)c2F)c2ccc(OCc3ccccn3)cc12` [Example 589, (2S,4R)-1-{2-[3-Acetyl-5-(pyridin-2-ylmethoxy)-indol-1-yl]-acetyl}-4-fluoro-pyrrolidine-2-carboxylic acid 3-chloro-2-fluoro-benzylamide] to `CC(=O)c1cn(CC(=O)N2C[C@H](F)C[C@H]2C(=O)NCc2cccc(Cl)c2F)c2ccc(OCc3ncccn3)cc12` [Example 590, (2S,4R)-1-{2-[3-Acetyl-5-(pyrimidin-2-ylmethoxy)-indol-1-yl]-acetyl}-4-fluoro-pyrrolidine-2-carboxylic acid 3-chloro-2-fluoro-benzylamide], the IC50 falls from 237 nM to 10 nM (24-fold).

`COCCOc1ccc2c(C(N)=O)cn(CC(=O)N3C[C@H](F)C[C@H]3C(=O)NCc3cccc(Cl)c3F)c2c1` [Example 591, 1-{2-[(2S,4R)-2-(3-Chloro-2-fluoro-benzylcarbamoyl)-4-fluoro-pyrrolidin-1-yl]-2-oxo-ethyl}-6-(2-methoxy-ethoxy)-1H-indole-3-carboxylic acid amide] and `NC(=O)c1cn(CC(=O)N2C[C@H](F)C[C@H]2C(=O)NCc2cccc(Cl)c2F)c2cc(OCCO)ccc12` [Example 594, 1-{2-[(2S,4R)-2-(3-Chloro-2-fluoro-benzylcarbamoyl)-4-fluoro-pyrrolidin-1-yl]-2-oxo-ethyl}-6-(2-hydroxy-ethoxy)-1H-indole-3-carboxylic acid amide] are within 1.5-fold of each other in IC50: 109 nM for the first, 85 nM for the second.

Going from `COC(=O)COc1ccc2c(C(N)=O)cn(CC(=O)N3C[C@H](F)C[C@H]3C(=O)NCc3cccc(Cl)c3F)c2c1` [Example 592, (3-Carbamoyl-1-{2-[(2S,4R)-2-(3-chloro-2-fluoro-benzylcarbamoyl)-4-fluoro-pyrrolidin-1-yl]-2-oxo-ethyl}-1H-indol-6-yloxy)-acetic acid methyl ester] to `NC(=O)c1cn(CC(=O)N2C[C@H](F)C[C@H]2C(=O)NCc2cccc(Cl)c2F)c2cc(OCC(=O)O)ccc12` [Example 593, (3-Carbamoyl-1-{2-[(2S,4R)-2-(3-chloro-2-fluoro-benzylcarbamoyl)-4-fluoro-pyrrolidin-1-yl]-2-oxo-ethyl}-1H-indol-6-yloxy)-acetic acid], the IC50 falls from 115 nM to 56 nM (2.1-fold). The second is the more potent here.

First: CC(=O)c1cn(CC(=O)N2C[C@H](F)C[C@H]2C(=O)NCc2cccc(Cl)c2F)c2cc(CC(=O)O)ccc12 [Example 595, (3-Acetyl-1-{2-[(2S,4R)-2-(3-chloro-2-fluoro-benzylcarbamoyl)-4-fluoro-pyrrolidin-1-yl]-2-oxo-ethyl}-1H-indol-6-yl)-acetic acid]
Second: CC(=O)c1cn(CC(=O)N2[C@@H]3C[C@@H]3C[C@H]2C(=O)NCc2cccc(Cl)c2F)c2cc(CC(=O)O)ccc12 [Example 596, (3-Acetyl-1-{2-[(1R,3S,5R)-3-(3-chloro-2-fluoro-benzylcarbamoyl)-2-aza-bicyclo[3.1.0]hex-2-yl]-2-oxo-ethyl}-1H-indol-6-yl)-acetic acid]
The IC50 of the first is 2.3-fold lower: 41 nM for the first, 95 nM for the second.
